Measurements published in ChEMBL document CHEMBL3414527, “Engineering potent and selective analogues of GpTx-1, a tarantula venom peptide antagonist of the Na(V)1.7 sodium channel” (J Med Chem, 2015).
Bridge positions count the residues as written; N and C are the ends. Peptide text beside a SMILES is read from it.

These molecules were tested against Sodium channel protein type 5 subunit alpha (Homo sapiens, UniProt Q14524) (assay: Inhibition of human NaV1.5 at -140 mV holding potential by whole-cell patch clamp assay).
Sodium channel protein type 5 subunit alpha, sequence (Q14524 whole entry): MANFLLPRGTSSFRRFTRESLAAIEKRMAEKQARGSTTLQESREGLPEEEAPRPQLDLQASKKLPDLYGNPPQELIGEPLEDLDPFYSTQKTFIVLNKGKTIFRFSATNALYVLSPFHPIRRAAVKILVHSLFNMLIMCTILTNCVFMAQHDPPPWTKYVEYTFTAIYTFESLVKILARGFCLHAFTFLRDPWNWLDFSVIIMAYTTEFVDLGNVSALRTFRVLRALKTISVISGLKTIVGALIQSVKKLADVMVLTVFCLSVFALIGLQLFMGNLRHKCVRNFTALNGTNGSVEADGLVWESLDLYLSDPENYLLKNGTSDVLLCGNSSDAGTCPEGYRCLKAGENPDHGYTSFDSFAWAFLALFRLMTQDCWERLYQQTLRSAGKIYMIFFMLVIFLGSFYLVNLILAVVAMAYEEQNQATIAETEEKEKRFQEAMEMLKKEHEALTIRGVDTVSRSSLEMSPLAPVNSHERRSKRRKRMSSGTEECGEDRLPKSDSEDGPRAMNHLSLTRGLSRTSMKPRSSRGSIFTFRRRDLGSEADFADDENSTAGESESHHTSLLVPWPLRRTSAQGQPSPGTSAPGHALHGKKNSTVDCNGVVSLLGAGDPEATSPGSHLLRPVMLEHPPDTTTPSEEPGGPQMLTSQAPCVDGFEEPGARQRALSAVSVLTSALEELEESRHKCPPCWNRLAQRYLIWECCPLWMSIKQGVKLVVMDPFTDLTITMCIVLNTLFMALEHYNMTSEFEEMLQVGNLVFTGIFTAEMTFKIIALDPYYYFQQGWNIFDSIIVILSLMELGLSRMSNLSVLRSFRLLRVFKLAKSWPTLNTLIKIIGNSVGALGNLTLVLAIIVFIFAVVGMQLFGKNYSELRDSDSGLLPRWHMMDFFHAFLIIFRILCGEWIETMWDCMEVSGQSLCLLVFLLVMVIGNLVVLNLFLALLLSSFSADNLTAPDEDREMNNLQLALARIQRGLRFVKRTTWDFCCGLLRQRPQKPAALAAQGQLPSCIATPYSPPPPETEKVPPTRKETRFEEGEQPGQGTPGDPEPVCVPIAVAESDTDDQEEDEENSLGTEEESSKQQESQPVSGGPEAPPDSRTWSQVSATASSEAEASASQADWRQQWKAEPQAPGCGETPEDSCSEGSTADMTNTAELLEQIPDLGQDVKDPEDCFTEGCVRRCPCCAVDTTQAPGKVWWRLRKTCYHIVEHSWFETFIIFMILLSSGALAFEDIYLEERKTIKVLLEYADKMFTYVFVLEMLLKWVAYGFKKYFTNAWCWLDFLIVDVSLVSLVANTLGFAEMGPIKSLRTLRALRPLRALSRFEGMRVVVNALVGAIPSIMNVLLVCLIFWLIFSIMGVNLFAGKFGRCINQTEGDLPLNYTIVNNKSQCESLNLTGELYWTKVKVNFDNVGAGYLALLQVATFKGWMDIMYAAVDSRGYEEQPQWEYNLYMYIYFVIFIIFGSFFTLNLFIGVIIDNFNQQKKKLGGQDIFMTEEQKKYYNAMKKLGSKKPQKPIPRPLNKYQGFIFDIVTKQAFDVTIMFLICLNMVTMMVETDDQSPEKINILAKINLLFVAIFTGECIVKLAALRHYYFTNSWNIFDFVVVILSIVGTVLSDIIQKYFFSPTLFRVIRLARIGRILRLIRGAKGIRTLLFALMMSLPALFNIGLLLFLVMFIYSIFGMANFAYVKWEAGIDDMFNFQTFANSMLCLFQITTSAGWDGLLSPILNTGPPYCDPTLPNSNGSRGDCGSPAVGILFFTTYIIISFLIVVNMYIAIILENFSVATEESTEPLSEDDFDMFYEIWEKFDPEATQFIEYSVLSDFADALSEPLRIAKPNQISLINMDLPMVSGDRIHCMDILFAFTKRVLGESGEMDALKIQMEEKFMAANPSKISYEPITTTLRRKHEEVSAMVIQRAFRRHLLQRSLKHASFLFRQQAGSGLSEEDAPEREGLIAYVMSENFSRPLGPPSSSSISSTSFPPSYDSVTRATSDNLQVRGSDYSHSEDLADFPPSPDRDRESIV

| SMILES | IC50 [µM] |
| --- | --- |
| CC[C@H](C)[C@@H]1NC(=O)[C@@H]2CSSC[C@@H]3NC(=O)[C@H](C(C)C)NC(=O)[C@H](CC(C)C)NC(=O)[C@H](C)NC(=O)[C@@H]4CCCN4C(=O)[C@H](CCCNC(=N)N)NC(=O)[C@H](CSSC[C@H](NC(=O)[C@@H](N)CC(=O)O)C(=O)N[C@@H](CC(C)C)C(=O)NCC(=O)N[C@@H](Cc4ccccc4)C(=O)N[C@@H](CCSC)C(=O)N[C@@H](CCCNC(=N)N)C(=O)N[C@@H](CCCCN)C(=O)N2)NC(=O)[C@H](CSSC[C@@H](C(=O)N[C@@H](CCCCN)C(=O)N[C@@H](Cc2ccc(O)cc2)C(=O)N[C@H](C(=O)N[C@@H](Cc2ccccc2)C(N)=O)C(C)C)NC(=O)[C@H](Cc2c[nH]c4ccccc24)NC(=O)[C@H](CCCCN)NC(=O)[C@H](Cc2cnc[nH]2)NC(=O)[C@H]([C@@H](C)O)NC(=O)[C@H](CCCNC(=N)N)NC(=O)[C@H](CO)NC3=O)NC(=O)[C@H](CCCCN)NC(=O)[C@H](CC(=O)O)NC(=O)[C@H](CC(N)=O)NC(=O)[C@H](CC(=O)O)NC(=O)[C@@H]2CCCN2C1=O (H-DCLGFMRKCIPDNDKCCRPALVCSRTHKWCKYVF-NH2; disulfide 2-17, 9-23, 16-30) | > 5 |
| CC[C@H](C)[C@@H]1NC(=O)[C@@H]2CSSC[C@@H]3NC(=O)[C@H](C(C)C)NC(=O)[C@H](CC(C)C)NC(=O)[C@H](CC(N)=O)NC(=O)[C@@H]4CCCN4C(=O)[C@H](CCCNC(=N)N)NC(=O)[C@H](CSSC[C@H](NC(=O)[C@@H](N)CC(=O)O)C(=O)N[C@@H](CC(C)C)C(=O)NCC(=O)N[C@@H](Cc4ccccc4)C(=O)N[C@@H](CCSC)C(=O)N[C@@H](CCCNC(=N)N)C(=O)N[C@@H](CCCCN)C(=O)N2)NC(=O)[C@H](CSSC[C@@H](C(=O)N[C@@H](CCCCN)C(=O)N[C@@H](Cc2ccc(O)cc2)C(=O)N[C@H](C(=O)N[C@@H](Cc2ccccc2)C(N)=O)C(C)C)NC(=O)[C@H](Cc2c[nH]c4ccccc24)NC(=O)[C@H](CCCCN)NC(=O)[C@H](Cc2cnc[nH]2)NC(=O)[C@H]([C@@H](C)O)NC(=O)[C@H](CCCNC(=N)N)NC(=O)[C@H](C)NC3=O)NC(=O)[C@H](CCCCN)NC(=O)[C@H](CC(=O)O)NC(=O)[C@H](CC(N)=O)NC(=O)[C@H](CC(=O)O)NC(=O)[C@@H]2CCCN2C1=O (H-DCLGFMRKCIPDNDKCCRPNLVCARTHKWCKYVF-NH2; disulfide 2-17, 9-23, 16-30) | > 4.7 |
| CC[C@H](C)[C@@H]1NC(=O)[C@@H]2CSSC[C@@H]3NC(=O)[C@H](C(C)C)NC(=O)[C@H](CC(C)C)NC(=O)[C@H](CC(N)=O)NC(=O)[C@@H]4CCCN4C(=O)[C@H](CCCNC(=N)N)NC(=O)[C@H](CSSC[C@H](NC(=O)[C@@H](N)CC(=O)O)C(=O)N[C@@H](CC(C)C)C(=O)NCC(=O)N[C@@H](Cc4ccccc4)C(=O)N[C@@H](CCSC)C(=O)N[C@@H](CCCNC(=N)N)C(=O)N[C@@H](CCCCN)C(=O)N2)NC(=O)[C@H](CSSC[C@@H](C(=O)N[C@@H](CCCCN)C(=O)N[C@@H](C)C(=O)N[C@H](C(=O)N[C@@H](Cc2ccccc2)C(N)=O)C(C)C)NC(=O)[C@H](Cc2c[nH]c4ccccc24)NC(=O)[C@H](CCCCN)NC(=O)[C@H](Cc2cnc[nH]2)NC(=O)[C@H]([C@@H](C)O)NC(=O)[C@H](CCCNC(=N)N)NC(=O)[C@H](CO)NC3=O)NC(=O)[C@H](CCCCN)NC(=O)[C@H](CC(=O)O)NC(=O)[C@H](CC(N)=O)NC(=O)[C@H](CC(=O)O)NC(=O)[C@@H]2CCCN2C1=O (H-DCLGFMRKCIPDNDKCCRPNLVCSRTHKWCKAVF-NH2; disulfide 2-17, 9-23, 16-30) | > 5 |
| CC[C@H](C)[C@@H]1NC(=O)[C@@H]2CSSC[C@@H]3NC(=O)[C@H](C(C)C)NC(=O)[C@H](CC(C)C)NC(=O)[C@H](CC(N)=O)NC(=O)[C@@H]4CCCN4C(=O)[C@H](CCCNC(=N)N)NC(=O)[C@H](CSSC[C@H](NC(=O)[C@@H](N)CC(=O)O)C(=O)N[C@@H](CC(C)C)C(=O)N[C@@H](C)C(=O)N[C@@H](Cc4ccccc4)C(=O)N[C@@H](CCSC)C(=O)N[C@@H](CCCNC(=N)N)C(=O)N[C@@H](CCCCN)C(=O)N2)NC(=O)[C@H](CSSC[C@@H](C(=O)N[C@@H](CCCCN)C(=O)N[C@@H](Cc2ccc(O)cc2)C(=O)N[C@H](C(=O)N[C@@H](Cc2ccccc2)C(N)=O)C(C)C)NC(=O)[C@H](Cc2c[nH]c4ccccc24)NC(=O)[C@H](CCCCN)NC(=O)[C@H](Cc2cnc[nH]2)NC(=O)[C@H]([C@@H](C)O)NC(=O)[C@H](CCCNC(=N)N)NC(=O)[C@H](CO)NC3=O)NC(=O)[C@H](CCCCN)NC(=O)[C@H](CC(=O)O)NC(=O)[C@H](CC(N)=O)NC(=O)[C@H](CC(=O)O)NC(=O)[C@@H]2CCCN2C1=O (H-DCLAFMRKCIPDNDKCCRPNLVCSRTHKWCKYVF-NH2; disulfide 2-17, 9-23, 16-30) | > 5 |
| CC[C@H](C)[C@@H]1NC(=O)[C@@H]2CSSC[C@@H]3NC(=O)[C@H](C(C)C)NC(=O)[C@H](CC(C)C)NC(=O)[C@H](CC(N)=O)NC(=O)[C@@H]4CCCN4C(=O)[C@H](CCCNC(=N)N)NC(=O)[C@H](CSSC[C@H](NC(=O)[C@@H](N)CC(=O)O)C(=O)N[C@@H](CC(C)C)C(=O)NCC(=O)NCC(=O)N[C@@H](CCSC)C(=O)N[C@@H](CCCNC(=N)N)C(=O)N[C@@H](CCCCN)C(=O)N2)NC(=O)[C@H](CSSC[C@@H](C(=O)N[C@@H](CCCCN)C(=O)N[C@@H](Cc2ccc(O)cc2)C(=O)N[C@H](C(=O)N[C@@H](Cc2ccccc2)C(N)=O)C(C)C)NC(=O)[C@H](Cc2c[nH]c4ccccc24)NC(=O)[C@H](CCCCN)NC(=O)[C@H](Cc2cnc[nH]2)NC(=O)[C@H]([C@@H](C)O)NC(=O)[C@H](CCCNC(=N)N)NC(=O)[C@H](CO)NC3=O)NC(=O)[C@H](CCCCN)NC(=O)[C@H](CC(=O)O)NC(=O)[C@H](CC(N)=O)NC(=O)[C@H](CC(=O)O)NC(=O)[C@@H]2CCCN2C1=O (H-DCLGGMRKCIPDNDKCCRPNLVCSRTHKWCKYVF-NH2; disulfide 2-17, 9-23, 16-30) | > 10 |
| CC[C@H](C)[C@@H]1NC(=O)[C@@H]2CSSC[C@@H]3NC(=O)[C@H](C(C)C)NC(=O)[C@H](CC(C)C)NC(=O)[C@H](CC(N)=O)NC(=O)[C@@H]4CCCN4C(=O)[C@H](CCCNC(=N)N)NC(=O)[C@H](CSSC[C@H](NC(=O)[C@@H](N)CC(=O)O)C(=O)N[C@@H](CC(C)C)C(=O)NCC(=O)N[C@@H](Cc4ccccc4)C(=O)N[C@@H](CCSC)C(=O)N[C@@H](CCCNC(=N)N)C(=O)N[C@@H](CCCCN)C(=O)N2)NC(=O)[C@H](CSSC[C@@H](C(=O)N[C@@H](CCCCN)C(=O)N[C@@H](Cc2ccc(O)cc2)C(=O)N[C@H](C(=O)N[C@@H](Cc2ccccc2)C(N)=O)C(C)C)NC(=O)[C@H](Cc2c[nH]c4ccccc24)NC(=O)[C@H](CCCCN)NC(=O)[C@H](Cc2cnc[nH]2)NC(=O)[C@H](CCCNC(=N)N)NC(=O)[C@H](CCCNC(=N)N)NC(=O)[C@H](CO)NC3=O)NC(=O)[C@H](CCCCN)NC(=O)[C@H](CC(=O)O)NC(=O)[C@H](CC(N)=O)NC(=O)[C@H](CC(=O)O)NC(=O)[C@@H]2CCCN2C1=O (H-DCLGFMRKCIPDNDKCCRPNLVCSRRHKWCKYVF-NH2; disulfide 2-17, 9-23, 16-30) | 0.5 |
| CC[C@H](C)[C@@H]1NC(=O)[C@@H]2CSSC[C@@H]3NC(=O)[C@H](C(C)C)NC(=O)[C@H](CC(C)C)NC(=O)[C@H](CC(N)=O)NC(=O)[C@@H]4CCCN4C(=O)[C@H](CCCNC(=N)N)NC(=O)[C@H](CSSC[C@H](NC(=O)[C@@H](N)CC(=O)O)C(=O)N[C@@H](CC(C)C)C(=O)NCC(=O)N[C@@H](CCSC)C(=O)N[C@@H](CCSC)C(=O)N[C@@H](CCCNC(=N)N)C(=O)N[C@@H](CCCCN)C(=O)N2)NC(=O)[C@H](CSSC[C@@H](C(=O)N[C@@H](CCCCN)C(=O)N[C@@H](Cc2ccc(O)cc2)C(=O)N[C@H](C(=O)N[C@@H](Cc2ccccc2)C(N)=O)C(C)C)NC(=O)[C@H](Cc2c[nH]c4ccccc24)NC(=O)[C@H](CCCCN)NC(=O)[C@H](Cc2cnc[nH]2)NC(=O)[C@H]([C@@H](C)O)NC(=O)[C@H](CCCNC(=N)N)NC(=O)[C@H](CO)NC3=O)NC(=O)[C@H](CCCCN)NC(=O)[C@H](CC(=O)O)NC(=O)[C@H](CC(N)=O)NC(=O)[C@H](CC(=O)O)NC(=O)[C@@H]2CCCN2C1=O (H-DCLGMMRKCIPDNDKCCRPNLVCSRTHKWCKYVF-NH2; disulfide 2-17, 9-23, 16-30) | > 10 |
| CCCC[C@@H]1NC(=O)[C@H](Cc2ccccc2)NC(=O)CNC(=O)[C@H](CC(C)C)NC(=O)[C@@H](NC(=O)[C@@H](N)CC(=O)O)CSSC[C@@H]2NC(=O)[C@@H]3CSSC[C@@H](C(=O)N[C@@H](CCCCN)C(=O)N[C@@H](Cc4ccc(O)cc4)C(=O)N[C@H](C(=O)N[C@@H](Cc4ccccc4)C(N)=O)C(C)C)NC(=O)[C@H](Cc4c[nH]c5ccccc45)NC(=O)[C@H](CCCCN)NC(=O)[C@H](Cc4cnc[nH]4)NC(=O)[C@H]([C@@H](C)O)NC(=O)[C@H](CCCNC(=N)N)NC(=O)[C@H](CO)NC(=O)[C@H](CSSC[C@H](NC(=O)[C@H](CCCCN)NC(=O)[C@H](CCCNC(=N)N)NC1=O)C(=O)N[C@@H]([C@@H](C)CC)C(=O)N1CCC[C@H]1C(=O)N[C@@H](CC(=O)O)C(=O)N[C@@H](CC(N)=O)C(=O)N[C@@H](CC(=O)O)C(=O)N[C@@H](CCCCN)C(=O)N3)NC(=O)[C@H](C(C)C)NC(=O)[C@H](CC(C)C)NC(=O)[C@H](CC(N)=O)NC(=O)[C@@H]1CCCN1C(=O)[C@H](CCCNC(=N)N)NC2=O | 1.1 |
| CC[C@H](C)[C@@H]1NC(=O)[C@@H]2CSSC[C@@H]3NC(=O)[C@H](C(C)C)NC(=O)[C@H](CC(C)C)NC(=O)[C@H](CC(N)=O)NC(=O)[C@@H]4CCCN4C(=O)[C@H](CCCNC(=N)N)NC(=O)[C@H](CSSC[C@H](NC(=O)[C@@H](N)CC(=O)O)C(=O)N[C@@H](CC(C)C)C(=O)NCC(=O)N[C@@H](C4CCCC4)C(=O)N[C@@H](CCSC)C(=O)N[C@@H](CCCNC(=N)N)C(=O)N[C@@H](CCCCN)C(=O)N2)NC(=O)[C@H](CSSC[C@@H](C(=O)N[C@@H](CCCCN)C(=O)N[C@@H](Cc2ccc(O)cc2)C(=O)N[C@H](C(=O)N[C@@H](Cc2ccccc2)C(N)=O)C(C)C)NC(=O)[C@H](Cc2c[nH]c4ccccc24)NC(=O)[C@H](CCCCN)NC(=O)[C@H](Cc2cnc[nH]2)NC(=O)[C@H]([C@@H](C)O)NC(=O)[C@H](CCCNC(=N)N)NC(=O)[C@H](CO)NC3=O)NC(=O)[C@H](CCCCN)NC(=O)[C@H](CC(=O)O)NC(=O)[C@H](CC(N)=O)NC(=O)[C@H](CC(=O)O)NC(=O)[C@@H]2CCCN2C1=O | > 10 |
